Here are results for 1 molecule from patent US12661333B2, “Composition for use in treatment of a biofilm in a subject” (TECHNOLOGICAL UNIVERSITY DUBLIN, priority 2020, dated 2026).

SMILES strings stand for the structures.

Data set [1] relates to human gingival fibroblasts (HGFs). Also on record: dose or concentration left out as unconfirmed. The conditions noted are these: exposed for 24 and 48 hours; cited from earlier work.
Data set [2] concerns human periodontal ligament cells (hPDLCs). Also on record: dose or concentration left out as unconfirmed. The conditions noted are these: exposed for 24 and 48 hours; cited from earlier work.
The test system of data set [3] is Enterococcus faecalis ATCC 7080. The data set is described as follows: Biofilm formation in vitro, crystal violet assay. The data set is classed as cell-based. The conditions noted are these: for reduction of biofilm formation versus control: 24 hours, 37° C., FIG. 1B. The protocol:
(§1) FIG. 1: The effect of varying concentrations of DHA on the ability of Klebsiella pneumoniae NCIMB 418 (A) and Enterococcus faecalis ATCC 7080 (B) to form a biofilm in vitro. (10^6 CFU/well was incubated with various concentrations of DHA in a 96 well plate for 24 hours statically at 37° C. Biofilm formation was assessed using the crystal violet assay. Data represents the mean±SD for six independent experiments, carried out in triplicate. One-way ANOVA was performed for statistical analysis. *****P<0.001 compared to both the control (no DHA) and vehicle control (1% DMSO).
The effect of varying concentrations of DHA on the ability of Klebsiella pneumoniae NCIMB 418 and Enterococcus faecalis ATCC 7080 to form a biofilm in vitro was investigated. 10^6 CFU/well was incubated with various concentrations of DHA in a 96 well plate for 24 hours statically at 37° C. Biofilm formation was assessed using the crystal violet assay. Data represents the mean±SD for six independent experiments, carried out in triplicate. The assay involves seeding cells at 10^^6 CFU/ml in media with DHA. Cells were then left for 24 hrs to form biofilms before washing and staining with Crystal Violet. Crystal violet adheres to cells stuck to the sides of the tube/well. The samples is washed again to remove any unbound dye before dissolving the stain in acetic acid and measuring the reading in a spectrophotometer. The colour intensity relates to the level of biofilm present. The more colour the more bacteria in the biofilm. Merritt, J. H., Kadouri, D. E. and O'Toole, G. A. (2005) ‘Growing and Analyzing Static Biofilms’, Current Protocols in Microbiology, Chapter 1(Jul), p. Unit 1B.1.

The subject of data set [4] is Klebsiella pneumoniae NCIMB 418. The data set can be described thus: Biofilm formation in vitro, crystal violet assay. In kind it is cell-based. The conditions noted are these: for reduction of biofilm formation versus control: 24 hours, 37° C., FIG. 1A. The procedure:
as §1
FIG. 2: Comparing DNA (16 μM) and Erythromycin (4 μg/ml) individually and adjunct for antibiofilm effects against Klebsiella pneumoniae NCIMB 481 in vitro. 10^6 CFU/well was incubated with each well of a 96 well plate for 24 hours statically at 37° C. Biofilm formation was assessed using the crystal violet assay. Data represents the mean±SD for four independent experiments, carried out in triplicate. One-way ANOVA was performed for statistical analysis. *****P<0.001 compared to both the control (no DHA or Erythromycin), vehicle control (1% DMSO), DHA (16 μM) and Erythromycin (4 μg·mL).
The effect of varying concentrations of DHA on the ability of Klebsiella pneumoniae NCIMB 418 and Enterococcus faecalis ATCC 7080 to form a biofilm in vitro was investigated. 10^6 CFU/well was incubated with various concentrations of DHA in a 96 well plate for 24 hours statically at 37° C. Biofilm formation was assessed using the crystal violet assay. Data represents the mean±SD for six independent experiments, carried out in triplicate. The assay involves seeding cells at 10^^6 CFU/ml in media with DHA. […] The samples is washed again to remove any unbound dye before dissolving the stain in acetic acid and measuring the reading in a spectrophotometer. […]
The effects of DHA (16 μM) and Erythromycin (4 μg/ml) were compared individually and adjunct for antibiofilm effects against Klebsiella pneumoniae NCIMB 481 in vitro. […] Biofilm formation was assessed using the crystal violet assay. […]

Where [5] appears, read: summary of FIG. 1, concentration not stated.

Turning to `CC/C=C\C/C=C\C/C=C\C/C=C\C/C=C\C/C=C\CCC(=O)O` [DHA, docosahexaenoic acid], the cytotoxic effects entry in data set [1] and in data set [2] was “cytotoxic effects” in each case. Besides, the “reduction of biofilm formation versus control” value is reported as around 20% in data set [3] (DHA 6.25 μM), around 65% in data set [3] (DHA 100 μM), around 40% in data set [4] (DHA 6.25 μM) and around 65% in data set [4] (DHA 100 μM). Moreover, the reducing biofilm formation result in data set [3] (setting [5]) and in data set [4] (setting [5]) was “approximately 60%” each time.
